SMILES strings stand for the structures.

Sequence of MGAT2 (microsomal fraction of human small intestine) (Q3SYC2 whole entry): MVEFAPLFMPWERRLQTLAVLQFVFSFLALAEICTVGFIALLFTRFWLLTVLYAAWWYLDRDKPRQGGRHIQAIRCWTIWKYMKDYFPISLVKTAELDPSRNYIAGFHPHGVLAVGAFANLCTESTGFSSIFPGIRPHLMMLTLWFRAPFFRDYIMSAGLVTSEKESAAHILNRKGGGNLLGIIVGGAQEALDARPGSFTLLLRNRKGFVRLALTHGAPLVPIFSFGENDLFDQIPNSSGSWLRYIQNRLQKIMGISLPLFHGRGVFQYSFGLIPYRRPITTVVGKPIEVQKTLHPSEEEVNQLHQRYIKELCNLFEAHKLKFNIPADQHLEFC

This test has as its target MGAT2 (microsomal fraction of human small intestine) (Homo sapiens (Human), UniProt Q3SYC2). As to the kind of experiment: Test Example 2: Test of MGAT2 inhibitory action (microsomal fraction of human small intestine, 3H-labeled 2-monooleoyl glycerol). In kind it is biochemical. Conditions: microsomal fraction of human small intestine 5 μg/ml; 4 μM oleoyl-CoA, 1.25 μM 2-monooleoyl glycerol, 0.125 μM 3H-labeled 2-monooleoyl glycerol; room temperature 30 min; read-out: Activity Value [nM] (IC50, concentration at which 50% of the products 3H-labeled dioleoyl glycerol and trioleoyl glycerol was inhibited). On the procedure:
An MGAT2 inhibition test for test compounds was conducted in accordance with a partially modified version of the method described in John F. Lockwood et al., Am. J. Physiol. Endocrinol. Metab., 2003, 285, E927.
A 10 mg/mL microsomal fraction of human small intestine (duodenum- and jejunum-derived fraction purchased from Becton Dickinson Japan) was used as an enzyme source.
The test was conducted using a flat-bottom 96-well plate (Corning).
A buffer solution with final concentrations of 5 mM magnesium chloride, 1.25 mg/ml bovine serum albumin and 100 mM Tris-HCl (pH=7.5) was prepared and the microsomal fraction of human small intestine was added thereto to give a final concentration of 5 μg/ml. […] Thereafter, final concentrations of 5 mM magnesium chloride, 1.25 mg/ml bovine serum albumin, 100 mM Tris-HCl (pH=7.5), 4 μM oleoyl-CoA, 1.25 μM 2-monooleoyl glycerol and 0.125 μM ^3H-labeled 2-monooleoyl glycerol (Muromachi Yakuhin Co., Ltd.) were added thereto to give a total volume of 100 μl. This mixture was reacted at room temperature for 30 min.
The reaction was stopped by adding an equal amount of isopropanol to the reaction mixture. The substrate contained in the reaction mixture (^3H-labeled 2-monooleoyl glycerol) and the reaction products (^3H-labeled dioleoyl glycerol and trioleoyl glycerol) were separated by adsorbing them onto an octadecylsilane resin (Wako gel 50C18) (Wako Pure Chemical Industries, Ltd.), removing the substrate by use of 80% isopropanol, and then eluting the reaction products with 100% isopropanol. The amounts of the reaction products were measured with MicroBeta (PerkinElmer Japan).
As for `CC(C)(C)c1cc(CN2CCc3cc(S(=O)(=O)Nc4ccc(CCCC5CCCC5)cc4F)ccc3C2)ccn1` [Working Example 6-85], the IC50 was 71 nM.

Regarding `C[C@H](c1ccc(C(C)(C)C)nc1)N1CCc2cc(S(=O)(=O)Nc3ccc(CCCC4CCCC4)cc3F)ccc2C1` [24-1, 2-[(1R)-1-(6-tert-Butylpyridin-3-yl)ethyl]-N-[4-(3-cyclopentylpropyl)-2-fluorophenyl]-1,2,3,4-tetrahydroisoquinoline-6-sulfonamide], the IC50 came out at 4 nM.

Consider `Cc1nc(-c2ccccc2)sc1CN1CCc2cc(S(=O)(=O)Nc3ccc(CCCC4CCCC4)cc3F)ccc2C1` [Working Example 7-65], for which the IC50 is 118 nM.

For the compound `CC(C)(C)c1ccc(CCN2CCc3cc(S(=O)(=O)Nc4ccc(OCCOCC5CCCO5)cc4F)ccc3C2)cc1` (stereo not shown) [Working Example 8-9], the IC50 amounted to 160 nM.

Take `Cc1cc(CN2CCc3cc(S(=O)(=O)Nc4ccc(CCCC5CCCC5)cc4F)ccc3C2)c(C)n1-c1cccc(C(F)(F)F)c1` [Working Example 7-81]: the IC50 stood at 45 nM.

Take `Cc1cc(CN2CCc3cc(S(=O)(=O)Nc4ccc(CCCC5CCCC5)cc4F)ccc3C2)c(C)n1-c1ccncc1` [Working Example 7-88]: the IC50 was 145 nM.

Take `CC(C)(C)c1ccc(CCN2CCc3cc(S(=O)(=O)Nc4ccc(OCCCS(=O)(=O)c5ccccc5)cc4F)ccc3C2)cc1` [Working Example 8-6]: the IC50 worked out at 35 nM.

For the compound `O=S(=O)(Nc1ccc(CCCC2CCCC2)cc1F)c1ccc2c(c1)CCN(Cc1cnn(C3CCC3)c1)C2` [Working Example 2-9], the IC50 is 142 nM.

`CCCn1cc(CN2CCc3cc(S(=O)(=O)Nc4ccc(CCCC5CCCC5)cc4F)ccc3C2)cn1` [Working Example 2-8]: the IC50 was found to be 213 nM.

For `CC(C)(C)c1ccc(CCN2CCc3cc(S(=O)(=O)Nc4ccc(OCC[C@H]5CCOC[C@H]5F)cc4F)ccc3C2)cc1` [Working Example 8-11], the IC50 worked out at 169 nM.

As for `CC(C)(C)c1ccc(C2(N3CCc4cc(S(=O)(=O)Nc5ccc(CCCC6CCCC6)cc5F)ccc4C3)CC2)cn1` [25-2], the IC50 was 60 nM.

On to `CC(C)n1cc(CN2CCc3cc(S(=O)(=O)Nc4ccc(CCCC5CCCC5)cc4F)ccc3C2)cn1` [Working Example 2-5], for which the IC50 is 180 nM.

`Cc1nn(C)c(C)c1CN1CCc2cc(S(=O)(=O)Nc3ccc(CCCC4CCCC4)cc3F)ccc2C1` [Working Example 7-82]: the IC50 was 189 nM.

For `Cc1ccc(-n2nc(C)c(CN3CCc4cc(S(=O)(=O)Nc5ccc(CCCC6CCCC6)cc5F)ccc4C3)c2C)cc1` [Working Example 7-80], the IC50 is 66 nM.

With `CC(c1ccc(OCC(F)(F)F)nc1)N1CCc2cc(S(=O)(=O)Nc3ccc(CCCC4CCCC4)cc3F)ccc2C1` (stereo not shown) [23-6], the IC50 was determined as 115 nM.

On to `CC(C)(C)c1ccc(CCN2CCc3cc(S(=O)(=O)Nc4ccc(OCCC5CCCC5)cc4F)ccc3C2)cc1` [Working Example 8-5], for which the IC50 turned out to be 29 nM.

Turning to `O=S(=O)(Nc1ccc(CCCC2CCCC2)cc1F)c1ccc2c(c1)CCN(CCc1ccc(C(F)(F)F)cn1)C2` [Working Example 9-24], the IC50 was found to be 46 nM.

Turning to `O=S(=O)(Nc1ccc(CCCC2CCCC2)cc1F)c1ccc2c(c1)CCN(Cc1ccc(OCC(F)(F)F)nc1)C2` [Working Example 6-84], the IC50 came to 248 nM.

As for `CC(C)(C)n1cc(CN2CCc3cc(S(=O)(=O)Nc4ccc(OCCC5CCOCC5)cc4F)ccc3C2)cn1` [Working Example 2-10], the IC50 turned out to be 198 nM.

Take `CC(c1cnc(C(C)(C)C)nc1)N1CCc2cc(S(=O)(=O)Nc3ccc(CCCC4CCCC4)cc3F)ccc2C1` (single isomer, unassigned) [24-7]: the IC50 was 57 nM.

Regarding `C[C@@H](c1ccc(C(C)(C)C)nc1)N1CCc2cc(S(=O)(=O)Nc3ccc(CCCC4CCCC4)cc3F)ccc2C1` [24-2, 2-[(1S)-1-(6-tert-butylpyridin-3-yl)ethyl]-N-[4-(3-cyclopentylpropyl)-2-fluorophenyl]-1,2,3,4-tetrahydroisoquinoline-6-sulfonamide], the IC50 is 29 nM.

Take `CC(c1cnc(C(C)(C)C)nc1)N1CCc2cc(S(=O)(=O)Nc3ccc(CCCC4CCCC4)cc3F)ccc2C1` (single isomer, unassigned) [24-8]: the IC50 is 34 nM.

As to `CC(C)(C)c1ccc(CCN2CCc3cc(S(=O)(=O)Nc4ccc(OCCOC5CCCCC5)cc4F)ccc3C2)cc1` [Working Example 8-13], the IC50 was found to be 137 nM.

For `Cc1ccc(-n2cc(CN3CCc4cc(S(=O)(=O)Nc5ccc(CCCC6CCCC6)cc5F)ccc4C3)cn2)cc1` [Working Example 7-76], the IC50 came to 16 nM.

Turning to `CCn1cc(CN2CCc3cc(S(=O)(=O)Nc4ccc(CCCC5CCCC5)cc4F)ccc3C2)cn1` [Working Example 6-82], the IC50 was determined as 182 nM.

With `CC(c1ccnc(C(C)(C)C)c1)N1CCc2cc(S(=O)(=O)Nc3ccc(CCCC4CCCC4)cc3F)ccc2C1` (stereo not shown) [23-3], the IC50 was found to be 13 nM.

In the case of `O=S(=O)(Nc1ccc(CCCC2CCCC2)cc1F)c1ccc2c(c1)CCN(Cc1cnn(CC3CC3)c1)C2` [Working Example 2-7], the IC50 was 234 nM.

Take `CC(c1cnc(C(F)(F)F)nc1)N1CCc2cc(S(=O)(=O)Nc3ccc(CCCC4CCCC4)cc3F)ccc2C1` (single isomer, unassigned) [24-9]: the IC50 stood at 131 nM.

These data come from patent US9035059B2, “Nitrogen-containing condensed heterocyclic compound” (TAISHO PHARMACEUTICAL CO., LTD., priority 2011, dated 2015).
